Measured values published in paper PMC6934184, “Selective DNA-PKcs inhibition extends the therapeutic index of localized radiotherapy and chemotherapy” (The Journal of Clinical Investigation, 2019).

Molecular target: T1, AXL (Homo sapiens, UniProt P30530)
T1 construct: purchased Thermo Fisher Scientific (Life Technologies) SelectScreen
Assay: SelectScreen Z'LYTE
Assay type: biochemical
Method in brief: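 SelectScreen broad panel; activity (Z'LYTE, Adapta) plus binding formats. ATP: Km app for CSF1R Z'LYTE; 10 for CAMK1 Adapta. Readout = % per kinase.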

T1 sequence (P30530 26-894): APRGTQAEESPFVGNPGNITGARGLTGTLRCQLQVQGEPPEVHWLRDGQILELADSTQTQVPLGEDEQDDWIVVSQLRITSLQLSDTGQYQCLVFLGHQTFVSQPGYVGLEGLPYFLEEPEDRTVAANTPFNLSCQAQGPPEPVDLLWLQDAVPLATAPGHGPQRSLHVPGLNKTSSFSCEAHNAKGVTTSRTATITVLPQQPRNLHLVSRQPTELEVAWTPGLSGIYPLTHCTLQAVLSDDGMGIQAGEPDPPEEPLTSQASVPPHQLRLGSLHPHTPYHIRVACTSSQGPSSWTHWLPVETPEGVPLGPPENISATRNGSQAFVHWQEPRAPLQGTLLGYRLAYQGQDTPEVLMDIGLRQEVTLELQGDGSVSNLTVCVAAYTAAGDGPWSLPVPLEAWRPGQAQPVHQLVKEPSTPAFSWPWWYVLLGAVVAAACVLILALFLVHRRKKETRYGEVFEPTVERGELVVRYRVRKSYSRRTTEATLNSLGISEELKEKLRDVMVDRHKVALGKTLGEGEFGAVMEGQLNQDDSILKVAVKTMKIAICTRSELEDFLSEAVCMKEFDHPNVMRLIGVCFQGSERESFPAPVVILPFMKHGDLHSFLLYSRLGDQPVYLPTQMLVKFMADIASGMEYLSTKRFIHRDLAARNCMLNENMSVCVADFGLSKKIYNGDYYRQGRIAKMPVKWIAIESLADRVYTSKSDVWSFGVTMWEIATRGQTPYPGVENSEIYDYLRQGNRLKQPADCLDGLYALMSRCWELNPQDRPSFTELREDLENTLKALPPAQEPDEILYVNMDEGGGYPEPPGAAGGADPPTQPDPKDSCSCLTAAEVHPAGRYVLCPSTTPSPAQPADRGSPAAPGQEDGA

## CN(C(=O)CN1CCOCC1)c1ccc2sc3c(-c4cccc5c(=O)cc(N6CC7CCC(C6)O7)oc45)cccc3c2c1 [NU5455]
  inhibition at 1 µM: -4.2%
